According to patent US20170056336A1, “CO-TARGETING ANDROGEN RECEPTOR SPLICE VARIANTS AND MTOR SIGNALING PATHWAY FOR THE TREATMENT OF CASTRATION-RESISTANT PROSTATE CANCER” (British Columbia Cancer Agency Branch, priority 2015, published 2017):

Experiments:
LNCaP95 cells [1] = test: Cell proliferation BrdU immunoassay; type: cell-based, human; conditions: R1881 0.1 nM, 48 h, serum-free, Compound A 25 uM, enzalutamide 10 uM, BEZ-235 15 nM, everolimus 10 nM
AR-V7 = target: T1, AR-V7 (Homo sapiens, UniProt P10275); test: PB-luciferase assay in Cos-1 cells transfected with AR-V7; type: cell-based; conditions: 24 h, serum-free
T1 construct: expressed in transfected cells; host or cells: Cos-1
T1 sequence (P10275 1-644 isoform P10275-3): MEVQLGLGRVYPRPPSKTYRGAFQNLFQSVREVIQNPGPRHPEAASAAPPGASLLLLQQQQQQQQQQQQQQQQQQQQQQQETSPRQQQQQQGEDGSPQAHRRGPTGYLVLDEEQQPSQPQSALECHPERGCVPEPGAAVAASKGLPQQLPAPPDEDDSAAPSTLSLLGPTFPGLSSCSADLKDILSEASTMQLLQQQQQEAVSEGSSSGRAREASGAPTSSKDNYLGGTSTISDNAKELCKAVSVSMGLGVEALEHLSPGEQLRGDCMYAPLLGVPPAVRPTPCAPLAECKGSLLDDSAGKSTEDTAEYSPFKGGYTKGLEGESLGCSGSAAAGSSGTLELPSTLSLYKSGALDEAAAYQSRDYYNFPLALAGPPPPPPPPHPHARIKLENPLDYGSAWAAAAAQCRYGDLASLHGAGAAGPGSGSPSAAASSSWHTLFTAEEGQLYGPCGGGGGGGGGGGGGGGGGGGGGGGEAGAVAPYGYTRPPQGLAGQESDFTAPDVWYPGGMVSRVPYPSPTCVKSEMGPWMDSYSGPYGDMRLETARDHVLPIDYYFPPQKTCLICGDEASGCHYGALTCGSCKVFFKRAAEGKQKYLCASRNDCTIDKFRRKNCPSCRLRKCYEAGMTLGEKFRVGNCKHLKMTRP
Description: Ectopic protein levels of AR-V7 and AR-V567 in Cos-1 cells are shown relative to endogenous levels of FL-AR in LNCaP cells.

LNCaP95 xenografts [2] = test: Western blot analyses of protein lysates from xenografts; type: in vivo, mice
LNCaP95 cells [3] = test: Titration of BEZ-235 for cytotoxicity in LNCaP95 cells; type: cell-based, human
LNCaP95 xenografts [4] = test: Immunohistochemistry of harvested xenografts; type: in vivo, mice; conditions: immunohistochemistry
[5] = test system: genes regulated by FL-AR and AR-V7 in LNCaP95 cells; test: Gene expression analysis (quantitative real-time RT-PCR) in LNCaP95 cells; type: cell-based, human
CDK1 = CDK1 (Homo sapiens, UniProt P06493); conditions: higher concentrations; read-out: concentration inhibiting CDK1; cited from earlier work
FL-AR = target: T2, FL-AR (Homo sapiens, UniProt P10275, T878A); test: PSA-, ARR3-, PB-luciferase AR reporter assay in LNCaP cells
T2 sequence (P10275 1-920 T878A): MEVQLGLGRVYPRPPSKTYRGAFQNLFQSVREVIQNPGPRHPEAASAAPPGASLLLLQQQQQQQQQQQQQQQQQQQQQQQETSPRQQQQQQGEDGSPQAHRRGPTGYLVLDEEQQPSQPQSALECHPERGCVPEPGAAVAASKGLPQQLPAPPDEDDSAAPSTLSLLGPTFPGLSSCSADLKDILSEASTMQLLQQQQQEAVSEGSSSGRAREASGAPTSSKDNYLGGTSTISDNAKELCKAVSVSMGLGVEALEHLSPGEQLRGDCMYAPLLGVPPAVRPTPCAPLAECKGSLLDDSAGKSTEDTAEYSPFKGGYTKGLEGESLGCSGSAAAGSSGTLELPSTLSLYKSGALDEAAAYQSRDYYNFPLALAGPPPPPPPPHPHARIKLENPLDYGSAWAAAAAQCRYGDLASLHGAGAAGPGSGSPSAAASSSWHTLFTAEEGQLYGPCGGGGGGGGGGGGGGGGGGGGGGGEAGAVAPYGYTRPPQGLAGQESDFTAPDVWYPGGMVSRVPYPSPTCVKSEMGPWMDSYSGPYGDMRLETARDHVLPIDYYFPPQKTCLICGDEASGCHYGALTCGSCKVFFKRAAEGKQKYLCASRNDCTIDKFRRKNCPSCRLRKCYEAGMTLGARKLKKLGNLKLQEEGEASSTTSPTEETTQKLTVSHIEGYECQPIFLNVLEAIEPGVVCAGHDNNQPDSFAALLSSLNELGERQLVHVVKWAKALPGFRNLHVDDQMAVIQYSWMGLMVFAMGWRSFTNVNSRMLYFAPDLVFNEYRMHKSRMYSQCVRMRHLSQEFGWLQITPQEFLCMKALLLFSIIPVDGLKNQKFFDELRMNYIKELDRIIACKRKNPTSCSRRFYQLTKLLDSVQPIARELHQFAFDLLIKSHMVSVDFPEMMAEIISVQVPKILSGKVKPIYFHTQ

[6] = harvested tumors, Compound A 100 mg/kg, BEZ-235 5 mg/kg
[7] = xenografts harvested 1 h after last treatment, BEZ-235 5 mg/kg
[8] = BEZ-235 orally daily at 5 mg/kg body weight

Sequence of CDK1 (P06493 whole entry, species assumed): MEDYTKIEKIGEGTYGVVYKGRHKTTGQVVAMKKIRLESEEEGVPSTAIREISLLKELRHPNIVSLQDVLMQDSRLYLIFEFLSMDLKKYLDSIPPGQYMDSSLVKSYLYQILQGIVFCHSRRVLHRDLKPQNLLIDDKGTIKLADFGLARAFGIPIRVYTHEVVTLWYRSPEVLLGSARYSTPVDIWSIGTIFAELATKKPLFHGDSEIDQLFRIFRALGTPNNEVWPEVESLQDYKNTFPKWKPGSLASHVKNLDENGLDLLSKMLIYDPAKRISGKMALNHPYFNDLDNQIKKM
Sequence of CDK1 (P14635 whole entry partner, species assumed): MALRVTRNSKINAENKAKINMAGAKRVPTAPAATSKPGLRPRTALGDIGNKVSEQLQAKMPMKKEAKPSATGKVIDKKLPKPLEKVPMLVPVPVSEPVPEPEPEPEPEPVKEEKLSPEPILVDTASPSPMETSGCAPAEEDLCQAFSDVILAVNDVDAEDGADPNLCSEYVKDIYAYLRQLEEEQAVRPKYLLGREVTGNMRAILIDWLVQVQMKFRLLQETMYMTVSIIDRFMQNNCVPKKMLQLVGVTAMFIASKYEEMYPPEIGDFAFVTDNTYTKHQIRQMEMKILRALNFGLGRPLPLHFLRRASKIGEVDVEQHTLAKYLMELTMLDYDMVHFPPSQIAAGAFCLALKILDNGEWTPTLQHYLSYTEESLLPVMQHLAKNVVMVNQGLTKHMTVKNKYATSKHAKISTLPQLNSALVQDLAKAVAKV

Cn1c(=O)n(-c2ccc(C(C)(C)C#N)cc2)c2c3cc(-c4cnc5ccccc5c4)ccc3ncc21 [BEZ-235, 2-methyl-2-[4-(3-methyl-2-oxo-8-quinolin-3-ylimidazo[4,5-c]quinolin-1-yl)phenyl]propanenitrile]
proliferation (BrdU incorporation) (LNCaP95 cells [1]): inhibited | transcriptional activity of AR-V7 (AR-V7): no effect | levels of p4EBP1 (LNCaP95 xenografts [2]; harvested tumors, normalized to total 4EBP1): no significant change | levels of pAkt (LNCaP95 xenografts [2]; harvested tumors, normalized to total Akt): no significant change | protein levels of UBE2C (LNCaP95 xenografts [2]; [6]): reduced | protein levels of pS6 (LNCaP95 xenografts [2]; [6]): reduced | protein levels of FKBP5 (LNCaP95 xenografts [2]; in vivo, monotherapies): reduced | protein levels of AR-V7 (LNCaP95 xenografts [2]; [7]): reduced | protein levels of FL-AR (LNCaP95 xenografts [2]; [7]): reduced | cytotoxicity (LNCaP95 cells [3]; 500 nM BEZ-235): enormous cytotoxicity | non-toxic concentration (LNCaP95 cells [3]; titration experiments): 15 nM | UBE2C staining (LNCaP95 xenografts [4]): reduced | pS6 staining (LNCaP95 xenografts [4]): reduced | TMPRSS2 or FKBP5 transcripts in response to BEZ-235 [5]: No similar effects | levels of FL-AR transcript [5]: did not increase | increase in transcript levels of AR-V7 ([5]; absence of androgen): greater than 2 fold | levels of PSA transcript ([5]; absence of androgen): induced | transcript levels of AR-V7 target genes (UBE2C, CDC20, Akt1) ([5]; absence of androgen): consistently reduced | androgen-induced levels of PSA transcripts ([5]; compared to androgen alone): significantly increased | UBE2C levels ([5]; monotherapy, regardless of androgen): attenuated | IC50 (CDK1): > 10 µM | mortality of the animals (BEZ-235 45 mg/kg body weight): 66% | mTOR in tumors [8]: sufficient to block | pAkt in tumors [8]: not | toxicity [8]: non-toxic | activity of FL-AR in response to androgen (FL-AR): did not enhance
